Measurements taken from patent publication US20020156236A1, “Binding sites for phosphotyrosine binding domains” (priority 1995, published 2002).
Where a SMILES comes first, the peptide text is derived from it.

Target: T1, PTB domain/c-erbB2 binding (GST-PTB domain of SHC; c-erbB2 from SKBR3 lysate) (Homo sapiens, UniProt P29353)
T1 construct: GST-PTB domain fusion proteins were expressed from recombinant baculovirus in sf9 cells; made in house; host or cells: Sf9 cells (recombinant baculovirus) for GST-PTB; c-erbB2 endogenous in SKBR3 cell lysate
T1 sequence (P29353 156-341): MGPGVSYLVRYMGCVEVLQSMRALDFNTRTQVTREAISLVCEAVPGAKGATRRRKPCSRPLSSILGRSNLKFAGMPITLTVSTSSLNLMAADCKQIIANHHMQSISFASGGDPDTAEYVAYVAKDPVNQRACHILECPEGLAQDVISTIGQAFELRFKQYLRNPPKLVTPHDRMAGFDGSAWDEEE
Test: biochemical
Details: Inhibition (relative inhibition scale of IC50)

Row | SMILES | IC50 [µM]
1 | CC(C)C[C@H](NC(=O)[C@H](CCC(N)=O)NC(=O)[C@H](CC(=O)O)NC(=O)[C@H](Cc1ccccc1)NC(=O)[C@H](C)NC(=O)[C@@H]1CCCN1C(=O)[C@H](CO)NC(=O)[C@H](Cc1ccccc1)NC(=O)[C@H](C)NC(=O)[C@@H]1CCCN1)C(=O)N[C@@H](Cc1ccc(O)cc1)C(=O)N[C@@H](Cc1ccc(OP(=O)(O)O)cc1)C(=O)N[C@@H](Cc1c[nH]c2ccccc12)C(=O)N[C@@H](CC(=O)O)C(=O)N[C@@H](CCC(N)=O)C(=O)N[C@@H](CC(N)=O)C(=O)N[C@@H](CO)C(=O)N[C@@H](CO)C(=O)N[C@@H](CCC(=O)O)C(=O)N[C@@H](CCC(N)=O)C(=O)NCC(=O)O [PAFSPAFDQLY (pY) WDQNSSEQG] (HELM PEPTIDE1{P.A.F.S.P.A.F.D.Q.L.Y.[O=C([C@H](Cc1ccc(OP(=O)(O)O)cc1)N[*:1])[*:2]].W.D.Q.N.S.S.E.Q.G}$$$$V2.0) | > 50
2 | CC(C)C[C@H](NC(=O)[C@H](CC(N)=O)NC(=O)[C@H](CO)NC(=O)[C@H](Cc1ccccc1)NC(=O)[C@H](C)NC(=O)[C@@H]1CCCN1C(=O)[C@H](CO)NC(=O)[C@H](Cc1ccccc1)NC(=O)[C@H](C)NC(=O)[C@@H]1CCCN1)C(=O)N[C@@H](Cc1ccc(O)cc1)C(=O)N[C@@H](Cc1ccc(OP(=O)(O)O)cc1)C(=O)N[C@@H](Cc1c[nH]c2ccccc12)C(=O)N[C@@H](CC(=O)O)C(=O)N[C@@H](CCC(N)=O)C(=O)N[C@@H](CC(N)=O)C(=O)N[C@@H](CO)C(=O)N[C@@H](CO)C(=O)N[C@@H](CCC(=O)O)C(=O)N[C@@H](CCC(N)=O)C(=O)NCC(=O)O [PAFSPAFSNLY (pY) WDQNSSEQG, PAFSPAFSNLY(pY)WDQNSSEQG] (HELM PEPTIDE1{P.A.F.S.P.A.F.S.N.L.Y.[O=C([C@H](Cc1ccc(OP(=O)(O)O)cc1)N[*:1])[*:2]].W.D.Q.N.S.S.E.Q.G}$$$$V2.0) | 5 to 50
